Where two headings read alike, the source gives them in different places.
What was measured:
EED (1-441)-His protein = molecular target: T1, EED (1-441)-His protein (Homo sapiens, UniProt O75530); assay: EED-H3K27Me3 peptide competition binding assay by AlphaScreen
T1 construct: 30 nM EED (1-441)-His protein
Outline: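 Serially diluted compound (12 points, 3-fold) incubated 20 min with 30 nM EED(1-441)-His and 15 nM biotin-H3K27Me3(19-33) peptide in 25 mM HEPES pH 8, 0.02% Tween-20, 0.5% BSA. Ni-chelate acceptor/streptavidin donor beads (10 μg/mL each) added, 1 h rt dark; 615 nm emission normalized to controls, dose-response fit for IC50.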

[1] = molecular target: wild type PRC2 (wtPRC2) complex (Homo sapiens, UniProt O75530); assay: EED LC-MS assay (SAH production by PRC2); type: biochemical
Outline: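 LC-MS/MS readout of SAH (d4-SAH standard) after TFA quench gives PRC2 activity, normalized to controls and fitted to dose-response for IC50. Reaction: 12 nM EZH2/SUZ12/EED/Rbap48/AEBP complex, 1 μM SAM, 1.5 μM H3[21-44] peptide, 120 min rt, 20 min compound preincubation.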

[2] = tested on: H3K27 methylation in G401 cell; assay: ELISA (H3K27 methylation) assay in G401 cells; type: cell-based, human; settings: Homo sapiens
Outline: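 IC50 from dose-response fit of percent inhibition relative to DMSO, using H3K27me3/me2 ELISA signal (ECL) normalized to histone H3. Histones HCl-extracted after 48 h compound exposure of G401 cells at up to 20 μM, 8- or 12-point 3-fold series.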

[3] = read-out: (a) IC50, EED Alphascreen binding Qualified
[4] = read-out: (b) IC50, EED LC-MS Qualified
[5] = G-401, read-out: (c) IC50, ELISA Qualified
[6] = EED-H3K27Me3 peptide competition, AlphaScreen, read-out: (a) IC50 EED Alphascreen binding Qualified
[7] = PRC2 LC-MS assay, read-out: (b) IC50 EED LC-MS Qualified
[8] = G-401, H3K27 methylation ELISA, read-out: (c) IC50 ELISA Qualified
[9] = read-out: (a) IC50 EED Alphascreen binding Qualified
[10] = read-out: (b) IC50 EED LC-MS Qualified
[11] = G-401, read-out: (c) IC50 ELISA Qualified

T1 sequence (O75530 whole entry): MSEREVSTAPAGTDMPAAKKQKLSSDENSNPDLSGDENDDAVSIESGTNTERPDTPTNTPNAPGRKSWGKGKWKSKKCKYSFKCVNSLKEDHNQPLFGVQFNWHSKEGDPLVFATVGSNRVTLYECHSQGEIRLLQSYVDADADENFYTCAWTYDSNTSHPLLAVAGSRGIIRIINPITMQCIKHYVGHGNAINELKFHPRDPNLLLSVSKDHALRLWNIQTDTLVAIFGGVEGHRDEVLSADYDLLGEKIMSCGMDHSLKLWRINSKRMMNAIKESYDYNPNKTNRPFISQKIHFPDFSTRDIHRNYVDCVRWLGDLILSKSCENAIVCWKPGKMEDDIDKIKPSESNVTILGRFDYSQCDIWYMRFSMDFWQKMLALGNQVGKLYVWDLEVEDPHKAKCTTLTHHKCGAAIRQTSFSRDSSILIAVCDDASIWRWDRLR
Chain of wild type PRC2 (wtPRC2) complex (O75530 whole entry): as above
Chain of wild type PRC2 (wtPRC2) complex (Q15910 whole entry partner): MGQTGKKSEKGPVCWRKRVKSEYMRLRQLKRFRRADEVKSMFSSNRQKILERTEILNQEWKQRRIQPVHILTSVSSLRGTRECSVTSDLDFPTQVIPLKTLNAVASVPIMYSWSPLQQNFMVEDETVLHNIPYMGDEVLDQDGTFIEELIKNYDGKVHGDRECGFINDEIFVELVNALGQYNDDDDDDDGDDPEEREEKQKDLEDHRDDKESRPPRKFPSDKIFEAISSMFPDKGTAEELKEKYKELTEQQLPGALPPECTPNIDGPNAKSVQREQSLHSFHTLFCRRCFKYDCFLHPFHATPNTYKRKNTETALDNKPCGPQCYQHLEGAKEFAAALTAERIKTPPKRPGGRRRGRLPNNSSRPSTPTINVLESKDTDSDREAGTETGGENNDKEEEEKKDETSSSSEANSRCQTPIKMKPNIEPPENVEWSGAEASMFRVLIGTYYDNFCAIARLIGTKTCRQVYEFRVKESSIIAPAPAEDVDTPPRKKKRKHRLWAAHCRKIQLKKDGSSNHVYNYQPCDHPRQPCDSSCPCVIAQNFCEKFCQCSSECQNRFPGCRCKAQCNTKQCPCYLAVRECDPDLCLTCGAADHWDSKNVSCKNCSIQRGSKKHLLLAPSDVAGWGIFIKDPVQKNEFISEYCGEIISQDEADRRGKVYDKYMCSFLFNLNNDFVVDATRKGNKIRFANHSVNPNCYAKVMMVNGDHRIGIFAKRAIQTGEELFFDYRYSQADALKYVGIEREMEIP
Chain of wild type PRC2 (wtPRC2) complex (Q15022 whole entry partner): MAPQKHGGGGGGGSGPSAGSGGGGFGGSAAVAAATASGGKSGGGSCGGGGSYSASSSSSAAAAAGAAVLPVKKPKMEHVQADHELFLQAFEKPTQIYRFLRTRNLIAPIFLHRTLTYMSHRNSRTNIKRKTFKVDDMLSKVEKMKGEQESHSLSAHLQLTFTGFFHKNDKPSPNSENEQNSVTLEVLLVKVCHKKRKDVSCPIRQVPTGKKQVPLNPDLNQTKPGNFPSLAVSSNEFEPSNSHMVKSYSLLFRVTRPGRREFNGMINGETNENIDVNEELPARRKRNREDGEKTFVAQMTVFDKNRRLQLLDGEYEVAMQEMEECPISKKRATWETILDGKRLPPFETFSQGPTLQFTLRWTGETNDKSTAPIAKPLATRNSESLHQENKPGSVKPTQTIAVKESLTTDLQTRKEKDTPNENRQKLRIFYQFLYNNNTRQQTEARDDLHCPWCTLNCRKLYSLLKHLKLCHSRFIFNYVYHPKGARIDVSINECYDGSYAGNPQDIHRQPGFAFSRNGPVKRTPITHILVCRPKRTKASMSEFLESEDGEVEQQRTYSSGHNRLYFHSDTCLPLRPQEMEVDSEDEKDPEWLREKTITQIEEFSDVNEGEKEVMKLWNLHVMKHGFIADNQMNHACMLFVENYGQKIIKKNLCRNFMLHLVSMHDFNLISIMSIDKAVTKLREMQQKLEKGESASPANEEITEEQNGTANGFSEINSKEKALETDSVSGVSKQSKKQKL
Chain of wild type PRC2 (wtPRC2) complex (Q09028 whole entry partner): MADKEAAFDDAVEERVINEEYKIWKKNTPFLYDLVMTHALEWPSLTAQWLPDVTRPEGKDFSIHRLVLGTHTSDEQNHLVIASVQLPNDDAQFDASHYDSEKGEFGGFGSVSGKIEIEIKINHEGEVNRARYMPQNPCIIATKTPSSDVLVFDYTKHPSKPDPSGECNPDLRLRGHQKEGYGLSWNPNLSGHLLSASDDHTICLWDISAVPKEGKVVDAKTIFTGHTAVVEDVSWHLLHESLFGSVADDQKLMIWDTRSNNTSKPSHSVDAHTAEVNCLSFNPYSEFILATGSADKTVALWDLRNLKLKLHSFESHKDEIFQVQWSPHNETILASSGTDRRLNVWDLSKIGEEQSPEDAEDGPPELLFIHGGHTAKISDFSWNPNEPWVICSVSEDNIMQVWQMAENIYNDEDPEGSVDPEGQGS
Chain of wild type PRC2 (wtPRC2) complex (Q6ZN18 whole entry partner): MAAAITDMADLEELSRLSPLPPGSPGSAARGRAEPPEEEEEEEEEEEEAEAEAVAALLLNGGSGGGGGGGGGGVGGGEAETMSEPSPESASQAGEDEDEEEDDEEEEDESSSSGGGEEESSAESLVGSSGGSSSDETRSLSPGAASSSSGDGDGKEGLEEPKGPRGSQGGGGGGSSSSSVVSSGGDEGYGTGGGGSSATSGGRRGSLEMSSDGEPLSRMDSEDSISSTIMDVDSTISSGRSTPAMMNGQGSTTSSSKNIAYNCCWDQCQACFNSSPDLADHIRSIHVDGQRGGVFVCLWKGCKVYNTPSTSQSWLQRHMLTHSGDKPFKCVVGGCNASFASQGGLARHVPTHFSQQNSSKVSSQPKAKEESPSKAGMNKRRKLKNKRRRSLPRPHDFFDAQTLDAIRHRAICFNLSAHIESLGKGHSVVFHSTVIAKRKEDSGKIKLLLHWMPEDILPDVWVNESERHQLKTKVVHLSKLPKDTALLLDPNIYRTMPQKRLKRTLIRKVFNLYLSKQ

Row | IC50 (EED (1-441)-His protein; [3]) | IC50 [1, 4] | IC50 [2, 5] | IC50 (EED (1-441)-His protein; [6]) | IC50 [1, 7] | IC50 [2, 8] | SMILES | also measured
1 | 0.0166 µM | 0.0775 µM | 0.0143 µM |  |  |  | COc1cc(F)cc(F)c1CNc1ccc(-c2ccc(CN(C)C)cc2)c2nncn12 [Example 162, N-(2,4-difluoro-6-methoxybenzyl)-8-(4-((dimethylamino)methyl)phenyl)-[1,2,4]triazolo[4,3-a]pyridin-5-amine] | 
2 |  |  |  | 0.0951 µM | 0.286 µM | 0.0676 µM | COc1c(F)ccc(F)c1CNc1ccc(-c2cnc(C)nc2C)c2nncn12 [Example 333, N-(3,6-difluoro-2-methoxybenzyl)-8-(2,4-dimethylpyrimidin-5-yl)-[1,2,4] triazolo[4,3-a]pyridin-5-amine] | 
3 |  |  |  | 0.0472 µM | 0.136 µM | 0.0767 µM | COc1cccc(F)c1CNc1ccc(-c2ccc(N(C)C)nc2)c2nncn12 [Example 174, 8-(6-(dimethylamino)pyridin-3-yl)-N-(2-fluoro-6-methoxybenzyl)-[1,2,4]triazolo[4,3-a] pyridin-5-amine] | 
4 | 0.124 µM | 1.06 µM | 0.234 µM |  |  |  | COc1ccccc1CNc1ccc(-c2ccc(N3CCN(C)CC3)nc2)c2nncn12 [Example 21, N-(2-methoxybenzyl)-8-(6-(4-methylpiperazin-1-yl)pyridin-3-yl)-[1,2,4] triazolo[4,3-a]pyridin-5-amine] | 
5 |  |  |  |  |  |  | COc1cccc(F)c1CNc1ccc(-n2cc(C)cn2)c2nncn12 [Example 353, N-(2-fluoro-6-methoxybenzyl)-8-(4-methyl-1H-pyrazol-1-yl)-[1,2,4]triazolo [4,3-a]pyridin-5-amine] | IC50 (EED (1-441)-His protein; [9]): 0.0258 µM; IC50 [1, 10]: 0.156 µM; IC50 [2, 11]: 0.0393 µM
6 | 0.018 µM | 0.0751 µM | 0.0261 µM |  |  |  | COc1cccc(F)c1CNc1ccc(-c2ccc(S(C)(=O)=O)cc2)c2nncn12 [Example 78, N-(2-fluoro-6-methoxybenzyl)-8-(4-(methylsulfonyl)phenyl)-[1,2,4]triazolo[4,3-a]pyridin-5-amine] | 
7 |  |  |  | 0.0538 µM | 0.073 µM | 0.0387 µM | COCc1cncc(-c2ccc(NCc3c(F)cccc3OC)n3cnnc23)c1 [Example 203, N-(2-fluoro-6-methoxybenzyl)-8-(5-(methoxymethyl)pyridin-3-yl)-[1,2,4]triazolo[4,3-a] pyridin-5-amine] | 
8 |  |  |  | 0.0526 µM | 0.0946 µM | 0.0282 µM | COc1cccc(F)c1CNc1ccc(-c2cc(C)ncc2C)c2nncn12 [Example 305, 8-(2,5-dimethylpyridin-4-yl)-N-(2-fluoro-6-methoxybenzyl)-[1,2,4]triazolo[4,3-a] pyridin-5-amine] | 
9 | 0.0175 µM | 0.268 µM | 0.0188 µM |  |  |  | COc1cccc(F)c1CNc1ccc(-c2cncc(S(C)(=O)=O)c2)c2nncn12 [Example 140, N-(2-fluoro-6-methoxybenzyl)-8-(5-(methylsulfonyl)pyridin-3-yl)-[1,2,4]triazolo[4,3-a] pyridin-5-amine] | 
10 | 0.0356 µM | 0.0948 µM | 0.0142 µM |  |  |  | COc1cccc(F)c1CNc1ccc(-c2cnccc2C)c2nncn12 [Example 150, N-(2-fluoro-6-methoxybenzyl)-8-(4-methylpyridin-3-yl)-[1,2,4]triazolo[4,3-a] pyridin-5-amine] | 
11 |  |  |  |  |  |  | COc1cccc(F)c1CNc1ccc(-n2cc(C)c(C)n2)c2nncn12 [Example 367, 8-(3,4-dimethyl-1H-pyrazol-1-yl)-N-(2-fluoro-6-methoxybenzyl)-[1,2,4]triazolo[4,3-a] pyridin-5-amine] | IC50 (EED (1-441)-His protein; [9]): 0.0235 µM; IC50 [1, 10]: 0.113 µM; IC50 [2, 11]: 0.0291 µM
12 |  |  |  | 0.0082 µM | 0.0266 µM | 0.0073 µM | COc1cccc(F)c1CNc1ccc(-c2cnc(OC(C)C)nc2C)c2nncn12 [Example 332, N-(2-fluoro-6-methoxybenzyl)-8-(2-isopropoxy-4-methylpyrimidin-5-yl)-[1,2,4] triazolo[4,3-a]pyridin-5-amine] | 
13 |  |  |  | 0.0129 µM | 0.0272 µM | 0.0094 µM | COc1cccc(F)c1CNc1ccc(-c2ccncc2C)c2nncn12 [Example 230, N-(2-fluoro-6-methoxybenzyl)-8-(3-methylpyridin-4-yl)-[1,2,4]triazolo[4,3-a] pyridin-5-amine] | 
14 |  |  |  | 0.0142 µM | 0.0322 µM | 0.012 µM | COc1cccc(F)c1CNc1ccc(-c2ccnc(C(F)F)c2C)c2nncn12 [Example 277, 8-(2-(difluoromethyl)-3-methylpyridin-4-yl)-N-(2-fluoro-6-methoxybenzyl)-[1,2,4]triazolo[4,3-a]pyridin-5-amine] | 
15 |  |  |  | 0.0312 µM | 0.171 µM | 0.0225 µM | COc1cccc(F)c1CNc1ccc(-c2cn(CCO)nc2C(F)(F)F)c2nncn12 [Example 312, 2-(4-(5-((2-fluoro-6-methoxybenzyl)amino)-[1,2,4]triazolo[4,3-a]pyridin-8-yl)-3-(trifluoromethyl)-1H-pyrazol-1-yl)ethanol] | 
16 | 0.0282 µM | 0.304 µM | 0.0737 µM |  |  |  | CCN1CCN(c2ccc(-c3ccc(NCc4ccccc4OC)n4cnnc34)cn2)CC1 [Example 69, 8-(6-(4-ethylpiperazin-1-yl)pyridin-3-yl)-N-(2-methoxybenzyl)-[1,2,4]triazolo[4,3-a] pyridin-5-amine] | 
17 | 0.0436 µM | 0.321 µM | 0.0667 µM |  |  |  | COc1ccccc1CNc1ccc(-c2c(C)noc2C)c2nncn12 [Example 62, 8-(3,5-dimethylisoxazol-4-yl)-N-(2-methoxybenzyl)-[1,2,4]triazolo[4,3-a]pyridin-5-amine] | 
18 | 0.0149 µM | 0.0663 µM | 0.0175 µM |  |  |  | COc1ccccc1CNc1ccc(-c2ccc(CN(C)C)cc2)c2nncn12 [Example 15, 8-(4-((dimethylamino)methyl)phenyl)-N-(2-methoxybenzyl)-[1,2,4] triazolo[4,3-a]pyridin-5-amine] | 
19 | 0.0146 µM | 0.106 µM | 0.0217 µM |  |  |  | COc1ccccc1CNc1ccc(-c2ccc(N3CCN(C(C)C)CC3)cc2)c2nncn12 [Example 77, 8-(4-(4-isopropylpiperazin-1-yl)phenyl)-N-(2-methoxybenzyl)-[1,2,4]triazolo[4,3-a] pyridin-5-amine] | 
20 |  |  |  | 0.0269 µM | 0.147 µM | 0.0159 µM | COc1cccc(F)c1CNc1ccc(-c2cnn(C3CCNCC3)c2)c2nncn12 [Example 225, N-(2-fluoro-6-methoxybenzyl)-8-(1-(piperidin-4-yl)-1H-pyrazol-4-yl)-[1,2,4]triazolo[4,3-a]pyridin-5-amine] | 
21 | 0.0311 µM | 0.0625 µM | 0.0809 µM |  |  |  | COc1cccc(F)c1CNc1ccc(-c2ccc(N3CCN(C(C)C)CC3)nc2)c2nncn12 [Example 130, N-(2-fluoro-6-methoxybenzyl)-8-(6-(4-isopropylpiperazin-1-yl)pyridin-3-yl)-[1,2,4]triazolo[4,3-a]pyridin-5-amine] | 
22 | 0.0175 µM | 0.0236 µM | 0.0107 µM |  |  |  | COc1cccc(F)c1CNc1ccc(-c2cnc(C)nc2C)c2nncn12 [Example 3, 8-(2,4-Dimethylpyrimidin-5-yl)-N-(2-fluoro-6-methoxybenzyl)-[1,2,4]triazolo[4,3-a]pyridin-5-amine] | 
23 |  |  |  | 0.0285 µM | 0.13 µM | 0.0407 µM | COc1ccc(-c2ccc(NCc3c(F)cc(F)cc3OC)n3cnnc23)c(C)n1 [Example 319, N-(2,4-difluoro-6-methoxybenzyl)-8-(6-methoxy-2-methylpyridin-3-yl)-[1,2,4] triazolo[4,3-a]pyridin-5-amine] | 
